Experimental data reported in patent US8536202B2, “Triazole-substituted anthranilamides as pesticides” (Bayer Cropscience AG, priority 2010, dated 2013).
Like-named read-outs stand apart in the source and are kept apart here.

Columns and labels:
[1] = system: caterpillars of the armyworm (Spodoptera frugiperda); assay: Spodoptera frugiperda test (SPODFR spray treatment); format: in vivo; conditions: 168 h, 100 g/ha, after 7 days, read-out: activity in %
Description: (§1) Solvents: 78.0 parts by weight of acetone • • 1.5 parts by weight of dimethylformamide
(§2) Emulsifier: 0.5 part by weight of alkylaryl polyglycol ether
(§3) An appropriate preparation of active compound is prepared by mixing 1 part by weight of active compound with the stated amounts of solvent and emulsifier and diluting the concentrate with emulsifier-containing water to the desired concentration.
Leaf discs of maize (Zea mays) are sprayed with a preparation of active compound at the desired concentration and, after drying, are populated with caterpillars of the armyworm (Spodoptera frugiperda).
After 7 days, the activity in % is ascertained. Here, 100% means that all of the caterpillars have been killed; 0% means that no caterpillar has been killed.

[2] = system: larvae of the mustard beetle (Phaedon cochleariae); assay: Phaedon test (PHAECO spray treatment); format: in vivo; conditions: 168 h, 100 g/ha, after 7 days, read-out: activity in %
Description: as §1, §2, §3
After 7 days, the activity in % is ascertained. Here, 100% means that all of the beetle larvae have been killed; 0% means that no beetle larvae have been killed.

[3] = log P determination by HPLC on reversed-phase columns (EEC Directive 79/831 Annex V.A8); format: physicochemical; conditions: pH 2.7
Description: Determination by LC-MS in the acidic range takes place at a pH of 2.7 using 0.1% aqueous formic acid and acetonitrile (containing 0.1% formic acid) as eluents, with a linear gradient from 10% acetonitrile to 95% acetonitrile.
Calibration was carried out using unbranched alkan-2-ones (having 3 to 16 carbon atoms) with known log P values (the log P values are determined from the retention times by linear interpolation between two successive alkanones).

Row | Structure (SMILES) | pest or weed control at 100 g/ha [1] [%] | pest or weed control at 100 g/ha [2] [%] | chromatographic logP [3] | chromatographic logP ([3]; reversed-phase C18 HPLC column, HPLC on reversed-phase columns (C 18), EEC Directive 79/831 Annex V.A8, read-out: logP)
1 | Cc1cc(C#N)cc(C(N)=O)c1NC(=O)c1cc(Cn2cc(-c3ccc(C(F)(F)F)cc3)nn2)nn1-c1ncccc1Cl [Example 2] | 100 | 100 | 2.81 | –
2 | CNC(=O)c1cc(C#N)cc(C)c1NC(=O)c1cc(Cn2cc(-c3ccc(C(F)(F)F)cc3)nn2)nn1-c1ncccc1Cl [Example 3] | 100 | 100 | 2.99 | –
3 | Cc1cc(C#N)cc(C(=O)NC(C)C)c1NC(=O)c1cc(Cn2cc(-c3ccc(C(F)(F)F)cc3)nn2)nn1-c1ncccc1Cl [Example 4] | 100 | 100 | – | 3.39
4 | CNC(=O)c1cc(Cl)cc(C)c1NC(=O)c1cc(Cn2cc(-c3ccc(F)cc3)nn2)nn1-c1ncccc1Cl [Example 16] | 83 | 100 | 2.84 | –
5 | CNC(=O)c1cc(Cl)cc(C)c1NC(=O)c1cc(Cn2cc(-c3ccc(Cl)cc3)nn2)nn1-c1ncccc1Cl [Example 17] | 100 | 100 | 3.57 | –
6 | CNC(=O)c1cc(Cl)cc(C)c1NC(=O)c1cc(Cn2cc(-c3ccc(Cl)cc3Cl)nn2)nn1-c1ncccc1Cl [Example 18] | 100 | 100 | 3.2 | –
7 | CNC(=O)c1cc(Cl)cc(C)c1NC(=O)c1cc(Cn2cc(-c3ccccc3Cl)nn2)nn1-c1ncccc1Cl [Example 19] | 100 | 100 | 2.74 | –
8 | CNC(=O)c1cc(Cl)cc(C)c1NC(=O)c1cc(Cn2cc(-c3cccc(Cl)c3)nn2)nn1-c1ncccc1Cl [Example 20] | 100 | 100 | 3.11 | –
9 | CNC(=O)c1cc(Cl)cc(C)c1NC(=O)c1cc(Cn2ncc(-c3ccc(F)cc3)n2)nn1-c1ncccc1Cl [Example 24] | 100 | 100 | 3.23 | –
10 | CNC(=O)c1cc(Cl)cc(C)c1NC(=O)c1cc(Cn2ncc(-c3ccc(Cl)cc3)n2)nn1-c1ncccc1Cl [Example 25] | 100 | 100 | 3.62 | –
11 | CNC(=O)c1cc(Cl)cc(C)c1NC(=O)c1cc(Cn2ncc(-c3ccccc3Cl)n2)nn1-c1ncccc1Cl [Example 27] | 100 | 100 | 3.43 | –
12 | CNC(=O)c1cc(Cl)cc(C)c1NC(=O)c1cc(Cn2ncc(-c3cccc(Cl)c3)n2)nn1-c1ncccc1Cl [Example 28] | 100 | 100 | 3.63 | –
13 | CNC(=O)c1cc(C#N)cc(C)c1NC(=O)c1cc(Cn2cc(-c3ccc(Cl)cc3)nn2)nn1-c1ncccc1Cl [Example 33] | 100 | 100 | 2.75 | –
14 | CNC(=O)c1cc(C#N)cc(C)c1NC(=O)c1cc(Cn2cc(-c3ccc(Cl)cc3Cl)nn2)nn1-c1ncccc1Cl [Example 34] | 100 | 100 | 3.2 | –
15 | CNC(=O)c1cc(C#N)cc(C)c1NC(=O)c1cc(Cn2ncc(C(C)C)n2)nn1-c1ncccc1Cl [Example 38] | – | 100 | 2.58 | –
16 | Cc1cc(Cl)cc(C(=O)NC(C)(C)C)c1NC(=O)c1cc(Cn2ncc(C3CC3)n2)nn1-c1ncccc1Cl [Example 46] | – | 100 | 3.6 | –
17 | Cc1cc(I)cc(C(=O)NC2CCC2)c1NC(=O)c1cc(Cn2ncc(C(F)(F)F)n2)nn1-c1ncccc1Cl [Example 164] | – | 100 | 3.89 | –
18 | Cc1cc(C#N)cc(C(=O)NCC#N)c1NC(=O)c1cc(Cn2cc(C(F)(F)F)nn2)nn1-c1ncccc1Cl [Example 186] | – | 100 | 2.32 | –
